{"source": "patent US5157052A", "about": "“Method for inhibiting IgE production” (priority 1990, dated 1992)", "system": "IgE", "assay": "Inhibition of de novo IgE synthesis after oral (intragastric) administration", "assay_type": "in vivo, mouse (Balb/c female)", "conditions": "for IgE ± SD: 20 μg intragastric TID days 3 and 4", "procedure": "ELISA (enzyme linked immunosorbant assay) measurements of IgE are as follows. About 5 μg of B1E3 antibody in 100 μl borate buffered saline (pH8.5) is added to wells of a NuncImmulon II 96 well plate (DiRuscio & Assoc., St. Louis, Mo.) at 37° C. for 90 minutes. The non-bound antibody is removed by flicking the plate. Unreacted sites on the plastic plate are blocked by adding about 200 μl of a 2% solution of newborn bovine serum (NBS) in PBS at 37° C. for 60 minutes. The standard IgE (or an unknown murine serum sample) is diluted to between about 4 ng/ml-256 ng/ml in Hanks-HS (20 mM Hepes, 2% NBS in Hanks Balanced Salt Solution, Gibco, Grand Island, N.Y.) or to 1/200 to 1/1000 in Hanks-HS respectively. 100 μl of standard (or unknown dilutions) are added in triplicate to the wells of the plate and allowed to absorb to B1E3 antibody at about 37° C. for 2-4 hours. The solution is removed by flicking the plate and each well is washed with about 0.5 ml 0.05% Tween 20-PBS 5 times. About 100 μl of biotinylated R1E4, called the primary antibody, diluted to 200 ng/ml is added to all wells and incubated at about 4° C. overnight. The solution is removed by flicking the plate and washed 5 times as described above. The developing reagent (Avidin and biotin-horse radish peroxidase) is incubated in 2% NBS in PBS at ambient temperature for 30 minutes, according to manufacturer's specifications (Vector Laboratories, Burlingame, Calif.). About 100 μl of developing reagent is added to each well and incubated at ambient temperature for 30 minutes. Colorimetric substrate for the developing reagent (ABTS peroxidase substrate system, KPL, Gaithersburg, Md.) is prepared by mixing equal volumes of solutions A and B and incubating at ambient temperature for 60 minutes. The developing reagent solution is removed by flicking the plate and washed 5 times as described above. About 100 μl of the mixture of substrates is added to each well and incubated at ambient temperature for 60 minutes. The optical density of each well is determined on a BioTek ELISA reader (Biotek Instruments, Inc., Burlington, Vermont) and the absorbance data transferred electronically to a DEC VAX mainframe computer. A standard curve is fitted to the IgE standard optical densities using straight line, linear regression statistical fits. IgE in the unknown serum samples is determined by comparing the optical density of the unknown to the standard curve and multiplying that number by the dilution of serum used in the assay.\nThree groups of 4 Balb/c female mice per group are injected with both 100 μg FF1-4D5 antibody and 100 μg H∂A1 antibody (Groups B, C, and D). Another group of 4 Balb/c female mice is injected with PBS alone, unstimulated control Group A. One of the stimulated group were not given any prostaglandin control Group B. On day 3 and 4, individual groups receive an intragastric feeding TID of 0.25 ml of 20 μg of (±) methyl 11α,16-dihydroxy-16-methyl-9-oxoprosta-5Z,13E-dien-1-oate (Group C) or 20 μg of prostaglandin E2 (Group D) dissolved in PBS.", "data": [{"compound": "CCCCC(C)(O)C/C=C/[C@H]1[C@H](O)CC(=O)[C@@H]1C/C=C\\CCCC(=O)OC", "note": "(mixture of isomers) [(±) methyl 11α,16-dihydroxy-16-methyl-9-oxoprosta-5Z,13E-dien-1-oate]", "values": [{"measurement": "inhibition of de novo IgE synthesis after oral administration", "setting": "20 μg intragastric TID", "value": "significantly inhibits de novo IgE synthesis after oral administration"}, {"measurement": "IgE ± SD", "setting": "day 8 (stimulated control 5792, unstimulated 1015)", "value": "1490 ± 525", "unit": "ng/mL"}, {"measurement": "IgE ± SD", "setting": "day 10 (stimulated control 1498)", "value": "1131 ± 198", "unit": "ng/mL"}, {"measurement": "IgE ± SD", "setting": "day -1 baseline before treatment", "value": "1115 ± 201", "unit": "ng/mL"}]}]}
